In experiment [1] the target is Interleukin-1 receptor-associated kinase 4 (Homo sapiens) (UniProt Q9NWZ3). As to the kind of experiment: Inhibition of recombinant human N-terminal GST-tagged IRAK4 (140 to 460 residues) expressed in Escherichia coli assessed as remaining activity at 1 uM using MBP as substrate incubated for 30 mins in presence of [gamma-33P]ATP by filter binding method relative to control.

Experiment [2] has as its target Platelet-derived growth factor receptor alpha (Homo sapiens) (UniProt P16234). Briefly: Inhibition of recombinant human PDGFRalpha (551 to […] residues) expressed in baculovirus infected Sf21 cells assessed as remaining activity at 1 uM using KKKKEEIYFFFG as substrate incubated for 30 mins in presence of [gamma-33P]ATP by filter binding method relative to control.

Experiment [3] has as its target Calcium/calmodulin-dependent protein kinase type 1 (Homo sapiens) (UniProt Q14012). Briefly: Inhibition of recombinant human N-terminal GST-tagged CAMK1alpha (2 to 369 residues) expressed in Escherichia coli assessed as remaining activity at 1 uM using YLRRRLSDSNF as substrate incubated for 30 mins in presence of [gamma-33P]ATP by filter binding method relative to control.

Experiment [4] concerns the target MAP/microtubule affinity-regulating kinase 4 (Homo sapiens) (UniProt Q96L34). Briefly: Inhibition of recombinant human N-terminal His6-tagged MARK4 (2 to 752 residues) expressed in baculovirus infected Sf21 cells assessed as remaining activity at 1 uM using KKKVSRSGLYRSPSMPENLNRPR as substrate incubated for 30 mins in presence of [gamma-33P]ATP by filter binding method relative to control.

The target of experiment [5] is Serine/threonine-protein kinase PLK1 (Homo sapiens) (UniProt P53350). As to the kind of experiment: Inhibition of recombinant human N-terminal His6-tagged PLK1 (1 to 603 residues) expressed in baculovirus infected Sf21 cells assessed as remaining activity at 1 uM using ISDELMDATFADQEAKKK as substrate incubated for 30 mins in presence of [gamma-33P]ATP by filter binding method relative to control.
Serine/threonine-protein kinase PLK1 (Homo sapiens), sequence (P53350 whole entry, the tested form may be a part): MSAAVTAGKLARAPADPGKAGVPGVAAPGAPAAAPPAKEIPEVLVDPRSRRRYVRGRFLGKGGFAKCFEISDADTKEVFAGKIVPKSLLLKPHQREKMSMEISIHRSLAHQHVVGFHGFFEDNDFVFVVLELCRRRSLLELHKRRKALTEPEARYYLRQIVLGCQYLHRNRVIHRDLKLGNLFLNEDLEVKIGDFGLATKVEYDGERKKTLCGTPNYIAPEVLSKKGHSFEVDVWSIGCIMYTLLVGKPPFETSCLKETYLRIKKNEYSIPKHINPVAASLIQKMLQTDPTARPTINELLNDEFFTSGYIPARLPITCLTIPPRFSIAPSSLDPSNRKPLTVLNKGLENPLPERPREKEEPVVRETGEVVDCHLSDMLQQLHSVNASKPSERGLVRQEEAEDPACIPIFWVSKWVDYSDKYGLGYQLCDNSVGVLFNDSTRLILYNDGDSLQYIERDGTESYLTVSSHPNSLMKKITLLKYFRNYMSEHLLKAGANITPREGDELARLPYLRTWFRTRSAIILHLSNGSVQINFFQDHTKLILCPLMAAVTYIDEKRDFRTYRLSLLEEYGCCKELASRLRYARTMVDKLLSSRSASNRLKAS

Experiment [6] addresses Serine/threonine-protein kinase pim-3 (Homo sapiens) (UniProt Q86V86). Briefly: Inhibition of recombinant human N-terminal His6-tagged PIM3 (2 to 326 residues) expressed in baculovirus infected Sf21 cells assessed as remaining activity at 1 uM using RSRHSSYPAGT as substrate incubated for 30 mins in presence of [gamma-33P]ATP by filter binding method relative to control.
For experiment [7], the target named is Ephrin type-B receptor 3 (Homo sapiens) (UniProt P54753). As to the kind of experiment: Inhibition of recombinant human N-terminal His6-tagged EPHB3 (561 to 998 residues) expressed in Escherichia coli assessed as remaining activity at 1 uM using Poly(Glu, Tyr) as substrate incubated for 30 mins in presence of [gamma-33P]ATP by filter binding method relative to control.
Ephrin type-B receptor 3 (Homo sapiens), sequence (P54753 whole entry, the tested form may be a part): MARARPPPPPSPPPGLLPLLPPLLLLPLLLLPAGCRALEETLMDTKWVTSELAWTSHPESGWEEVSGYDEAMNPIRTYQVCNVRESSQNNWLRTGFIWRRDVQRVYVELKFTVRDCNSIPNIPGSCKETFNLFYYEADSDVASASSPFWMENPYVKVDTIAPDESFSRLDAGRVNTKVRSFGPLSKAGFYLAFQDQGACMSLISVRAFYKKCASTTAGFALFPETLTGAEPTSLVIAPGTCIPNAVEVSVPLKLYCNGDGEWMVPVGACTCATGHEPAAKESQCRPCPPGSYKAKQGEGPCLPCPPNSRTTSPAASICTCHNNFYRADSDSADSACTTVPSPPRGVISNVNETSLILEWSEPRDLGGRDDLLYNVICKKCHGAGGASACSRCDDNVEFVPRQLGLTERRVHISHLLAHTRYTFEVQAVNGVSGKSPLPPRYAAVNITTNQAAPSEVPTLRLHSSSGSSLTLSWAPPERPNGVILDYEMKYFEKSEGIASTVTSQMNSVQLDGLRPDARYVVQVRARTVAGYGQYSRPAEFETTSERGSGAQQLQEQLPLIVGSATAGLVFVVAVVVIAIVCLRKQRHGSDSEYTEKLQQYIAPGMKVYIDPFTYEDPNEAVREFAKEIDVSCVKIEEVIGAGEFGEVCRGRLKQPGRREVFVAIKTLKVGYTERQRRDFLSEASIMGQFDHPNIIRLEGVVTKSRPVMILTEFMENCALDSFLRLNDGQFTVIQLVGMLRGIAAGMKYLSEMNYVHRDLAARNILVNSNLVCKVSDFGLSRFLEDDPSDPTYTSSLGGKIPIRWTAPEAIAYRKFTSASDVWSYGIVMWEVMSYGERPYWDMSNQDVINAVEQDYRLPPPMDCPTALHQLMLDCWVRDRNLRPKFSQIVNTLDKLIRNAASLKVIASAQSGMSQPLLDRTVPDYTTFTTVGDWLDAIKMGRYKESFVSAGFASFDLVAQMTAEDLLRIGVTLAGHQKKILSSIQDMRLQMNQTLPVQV

The target of experiment [8] is Insulin-like growth factor 1 receptor (Homo sapiens) (UniProt P08069). As to the kind of experiment: Inhibition of recombinant human N-terminal His6-tagged IGF1R (954 to 1367 residues) expressed in baculovirus infected Sf21 cells assessed as remaining activity at 1 uM using KKKSPGEYVNIEFG as substrate incubated for 30 mins in presence of [gamma-33P]ATP by filter binding method relative to control.
Insulin-like growth factor 1 receptor (Homo sapiens), sequence (P08069 31-736 limits assumed): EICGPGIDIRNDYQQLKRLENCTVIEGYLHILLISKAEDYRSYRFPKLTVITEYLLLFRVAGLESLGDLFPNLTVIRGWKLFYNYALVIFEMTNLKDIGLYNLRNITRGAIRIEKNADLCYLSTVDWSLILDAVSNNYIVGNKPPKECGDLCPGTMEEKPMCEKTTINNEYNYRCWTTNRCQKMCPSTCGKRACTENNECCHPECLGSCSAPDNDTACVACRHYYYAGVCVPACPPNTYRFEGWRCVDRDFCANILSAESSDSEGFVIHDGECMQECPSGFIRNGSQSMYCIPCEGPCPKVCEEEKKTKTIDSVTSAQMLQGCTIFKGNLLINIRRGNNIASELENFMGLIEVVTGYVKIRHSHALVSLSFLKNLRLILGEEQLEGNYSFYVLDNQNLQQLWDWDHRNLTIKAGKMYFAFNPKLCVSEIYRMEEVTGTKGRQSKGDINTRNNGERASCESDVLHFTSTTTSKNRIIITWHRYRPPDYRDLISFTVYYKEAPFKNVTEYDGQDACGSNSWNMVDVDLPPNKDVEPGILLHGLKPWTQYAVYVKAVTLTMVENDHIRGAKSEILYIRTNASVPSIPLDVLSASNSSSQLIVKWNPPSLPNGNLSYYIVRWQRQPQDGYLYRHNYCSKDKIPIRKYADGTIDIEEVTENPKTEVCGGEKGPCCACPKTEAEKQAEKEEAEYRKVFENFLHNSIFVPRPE
Insulin-like growth factor 1 receptor (Homo sapiens), sequence (P08069 741-1367 limits assumed): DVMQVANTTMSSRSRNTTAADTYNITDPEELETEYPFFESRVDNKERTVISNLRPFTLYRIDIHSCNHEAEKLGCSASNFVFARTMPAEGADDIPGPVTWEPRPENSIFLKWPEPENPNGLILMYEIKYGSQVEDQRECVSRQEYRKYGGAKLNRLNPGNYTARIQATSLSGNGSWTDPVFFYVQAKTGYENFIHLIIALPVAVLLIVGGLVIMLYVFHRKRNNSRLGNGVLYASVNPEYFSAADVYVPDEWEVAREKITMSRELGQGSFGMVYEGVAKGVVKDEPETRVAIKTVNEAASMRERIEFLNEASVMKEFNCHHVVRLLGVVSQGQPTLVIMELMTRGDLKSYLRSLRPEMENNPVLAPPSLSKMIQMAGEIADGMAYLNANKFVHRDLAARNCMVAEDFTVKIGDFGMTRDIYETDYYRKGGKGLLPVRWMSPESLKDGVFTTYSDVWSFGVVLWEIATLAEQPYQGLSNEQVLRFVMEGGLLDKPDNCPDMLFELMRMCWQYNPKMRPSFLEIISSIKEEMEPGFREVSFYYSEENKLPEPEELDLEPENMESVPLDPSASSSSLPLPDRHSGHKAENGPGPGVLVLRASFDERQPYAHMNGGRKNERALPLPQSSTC

The target of experiment [9] is Homeodomain-interacting protein kinase 2 (Homo sapiens) (UniProt Q9H2X6). As to the kind of experiment: Inhibition of recombinant human N-terminal GST-tagged HIPK2 (165 to 564 residues) expressed in Escherichia coli assessed as remaining activity at 1 uM using MBP as substrate incubated for 30 mins in presence of [gamma-33P]ATP by filter binding method relative to control.

The target of experiment [10] is Serine/threonine-protein kinase PLK4 (Homo sapiens) (UniProt O00444). Briefly: Inhibition of human SAK at 1 uM using p38-alpha KA as substrate in presence of 33P-ATP by ProQinase assay.
Experiment [11] has as its target Casein kinase I isoform gamma-3 (Homo sapiens) (UniProt Q9Y6M4). Briefly: Inhibition of human CK1gamma3 at 1 uM using casein as substrate in presence of 33P-ATP by ProQinase assay.
Experiment [12] concerns the target Tyrosine-protein kinase ABL1 (Homo sapiens) (UniProt P00519). As to the kind of experiment: Inhibition of human ABL1 at 1 uM using poly(Ala,Glu,Lys,Tyr) as substrate in presence of 33P-ATP by ProQinase assay.
The target in experiment [13] is Insulin receptor-related protein (Homo sapiens) (UniProt P14616). As to the kind of experiment: Inhibition of human INSRR at 1 uM using poly(Ala,Glu,Lys,Tyr) as substrate in presence of 33P-ATP by ProQinase assay.
Experiment [14] addresses Platelet-derived growth factor receptor beta (Homo sapiens) (UniProt P09619). As to the kind of experiment: Inhibition of human PDGFRbeta at 1 uM using poly(Ala,Glu,Lys,Tyr) as substrate in presence of 33P-ATP by ProQinase assay.
Experiment [15] has as its target CDK2/Cyclin A2 (Homo sapiens) (UniProt P24941+P20248). As to the kind of experiment: Inhibition of human CDK2/CycA2 at 1 uM using RBER-CHKtide as substrate in presence of 33P-ATP by ProQinase assay. The format is protein-complex assay.
In experiment [16] the target is G protein-coupled receptor kinase 6 (Homo sapiens) (UniProt P43250). Briefly: Inhibition of human GRK6 at 1 uM using casein as substrate in presence of 33P-ATP by ProQinase assay.
Experiment [17] concerns the target Death-associated protein kinase 3 (Homo sapiens) (UniProt O43293). Briefly: Inhibition of human DAPK3 at 1 uM using RBER-GSK3 as substrate in presence of 33P-ATP by ProQinase assay.
Experiment [18] has as its target Protein kinase C eta type (Homo sapiens) (UniProt P24723). Briefly: Inhibition of human PKCeta at 1 uM using histon H2B as substrate in presence of 33P-ATP by ProQinase assay.
Experiment [19] has as its target Dual specificity protein kinase CLK4 (Homo sapiens) (UniProt Q9HAZ1). As to the kind of experiment: Inhibition of human CLK4 at 1 uM using MBP as substrate in presence of 33P-ATP by ProQinase assay.

Calls of active or inactive are those of the source. No cut-off for these calls is given here.

Tyrosine-protein kinase ABL1 (Homo sapiens), sequence (P00519 whole entry): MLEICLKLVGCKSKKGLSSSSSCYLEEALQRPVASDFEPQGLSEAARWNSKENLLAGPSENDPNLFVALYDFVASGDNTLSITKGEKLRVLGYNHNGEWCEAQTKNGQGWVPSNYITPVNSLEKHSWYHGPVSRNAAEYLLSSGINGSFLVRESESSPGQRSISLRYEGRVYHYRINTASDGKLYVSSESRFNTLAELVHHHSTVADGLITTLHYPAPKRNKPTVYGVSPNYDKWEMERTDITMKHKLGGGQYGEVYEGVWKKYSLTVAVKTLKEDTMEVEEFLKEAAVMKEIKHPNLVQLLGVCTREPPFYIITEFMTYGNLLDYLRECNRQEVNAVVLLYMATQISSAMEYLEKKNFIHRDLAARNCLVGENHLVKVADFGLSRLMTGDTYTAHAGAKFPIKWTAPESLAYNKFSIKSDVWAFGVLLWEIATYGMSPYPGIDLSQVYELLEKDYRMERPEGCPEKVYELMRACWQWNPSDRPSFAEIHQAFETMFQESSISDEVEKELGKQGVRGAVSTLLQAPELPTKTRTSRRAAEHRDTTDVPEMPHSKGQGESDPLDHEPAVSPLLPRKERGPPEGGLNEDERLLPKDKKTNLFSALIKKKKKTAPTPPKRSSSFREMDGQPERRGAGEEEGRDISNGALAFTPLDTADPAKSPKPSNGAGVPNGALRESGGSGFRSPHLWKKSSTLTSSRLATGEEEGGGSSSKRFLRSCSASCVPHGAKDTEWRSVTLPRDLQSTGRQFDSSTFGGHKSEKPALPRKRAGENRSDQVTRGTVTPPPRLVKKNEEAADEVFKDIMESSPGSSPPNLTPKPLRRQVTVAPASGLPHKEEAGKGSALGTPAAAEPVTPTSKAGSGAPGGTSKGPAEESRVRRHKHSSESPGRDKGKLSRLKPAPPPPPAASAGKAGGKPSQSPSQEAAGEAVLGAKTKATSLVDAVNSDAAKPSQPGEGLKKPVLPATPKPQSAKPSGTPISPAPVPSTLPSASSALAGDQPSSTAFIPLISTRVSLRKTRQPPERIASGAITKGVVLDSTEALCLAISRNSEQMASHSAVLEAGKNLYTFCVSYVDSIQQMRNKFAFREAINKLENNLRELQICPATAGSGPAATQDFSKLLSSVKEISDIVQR
Death-associated protein kinase 3 (Homo sapiens), sequence (O43293 whole entry, looked up): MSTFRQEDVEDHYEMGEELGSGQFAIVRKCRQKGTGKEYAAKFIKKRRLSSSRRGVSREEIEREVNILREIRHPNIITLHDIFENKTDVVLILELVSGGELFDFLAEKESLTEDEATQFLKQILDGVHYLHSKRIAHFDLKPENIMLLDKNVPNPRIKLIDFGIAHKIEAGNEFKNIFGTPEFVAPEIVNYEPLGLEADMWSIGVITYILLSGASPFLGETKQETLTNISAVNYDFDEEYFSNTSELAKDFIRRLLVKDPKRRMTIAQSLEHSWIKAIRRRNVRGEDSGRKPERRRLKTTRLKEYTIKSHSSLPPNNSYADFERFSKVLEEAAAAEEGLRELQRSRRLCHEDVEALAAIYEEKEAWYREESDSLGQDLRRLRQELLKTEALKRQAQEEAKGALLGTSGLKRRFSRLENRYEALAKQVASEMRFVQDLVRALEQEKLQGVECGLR
Dual specificity protein kinase CLK4 (Homo sapiens), sequence (Q9HAZ1 whole entry, looked up): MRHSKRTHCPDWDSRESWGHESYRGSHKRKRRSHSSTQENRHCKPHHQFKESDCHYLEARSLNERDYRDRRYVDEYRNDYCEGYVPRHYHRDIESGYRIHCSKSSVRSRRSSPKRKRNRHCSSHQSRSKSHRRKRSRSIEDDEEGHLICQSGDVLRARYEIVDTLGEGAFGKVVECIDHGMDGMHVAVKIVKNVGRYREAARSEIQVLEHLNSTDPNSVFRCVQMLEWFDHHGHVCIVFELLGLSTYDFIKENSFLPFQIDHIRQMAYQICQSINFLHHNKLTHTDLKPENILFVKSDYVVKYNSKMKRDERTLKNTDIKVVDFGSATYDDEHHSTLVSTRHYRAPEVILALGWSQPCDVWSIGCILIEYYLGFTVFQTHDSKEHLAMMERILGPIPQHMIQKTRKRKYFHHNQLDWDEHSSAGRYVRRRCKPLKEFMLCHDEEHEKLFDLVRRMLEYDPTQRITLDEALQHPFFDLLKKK

For the compound `CC(C)(O)CNc1ncc(-c2ccnc(Nc3ccnc(Cl)c3)n2)c(CC2CC2)n1`, the Activity in [1] amounted to 133%; in experiment [2], 121%; in experiment [3] it was 116%; in experiment [4], 115%; in experiment [5], 114%; in experiment [6], 114%. For the same compound, the figures for the Activity in experiment [7], in experiment [8] and in [9] were 111%, 101% and 96%, respectively. The inhibition entry in [10], in experiment [11], in experiment [12], in experiment [13], in experiment [14] and in experiment [15] was “inactive” in each case. For the same compound, the inhibition result in experiment [16], in experiment [17], in experiment [18] and in [19] was “inactive” each time.

The values are drawn from ChEMBL document CHEMBL5705899 (Biochem J, 2014).
